The values that follow come from patent publication US20260364080A1, “PYRAZOLO-PYRIMIDINONE COMPOUNDS FOR USE IN METHODS OF INHIBITING WEE1 A KINASE” (Acrivon Therapeutics, Inc., priority 2023, published 2026).

Like-named read-outs stand apart in the source and are kept apart here. A value given as a limit tells only on which side of the number the result lay.

The target in assay [1] is T1, recombinant human Wee1A kinase (Homo sapiens, UniProt P30291).
T1 construct: full length Wee1 kinase was expressed by baculovirus in insect cells; purchased Invitrogen PV3817; host or cells: insect cells (baculovirus)
T1 sequence (P30291 whole entry): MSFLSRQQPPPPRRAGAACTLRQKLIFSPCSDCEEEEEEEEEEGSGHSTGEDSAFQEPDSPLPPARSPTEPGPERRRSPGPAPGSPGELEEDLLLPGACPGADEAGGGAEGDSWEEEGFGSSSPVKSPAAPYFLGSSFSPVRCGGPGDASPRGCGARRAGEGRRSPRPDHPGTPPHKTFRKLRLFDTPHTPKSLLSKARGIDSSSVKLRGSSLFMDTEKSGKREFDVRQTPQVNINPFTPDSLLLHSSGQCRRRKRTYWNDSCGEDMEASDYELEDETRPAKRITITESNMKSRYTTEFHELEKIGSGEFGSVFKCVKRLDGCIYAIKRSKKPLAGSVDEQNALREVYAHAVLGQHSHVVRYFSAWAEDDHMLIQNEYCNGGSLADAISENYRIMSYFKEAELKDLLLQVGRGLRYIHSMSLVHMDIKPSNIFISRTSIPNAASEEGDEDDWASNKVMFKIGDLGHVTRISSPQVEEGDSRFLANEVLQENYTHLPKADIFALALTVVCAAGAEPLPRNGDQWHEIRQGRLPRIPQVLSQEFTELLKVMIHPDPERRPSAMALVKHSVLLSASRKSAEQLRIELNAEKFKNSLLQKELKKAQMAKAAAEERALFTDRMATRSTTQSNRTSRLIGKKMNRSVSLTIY
As to the kind of experiment: Wee1A kinase binding assay (LanthaScreen Eu time-resolved FRET). In outline:
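Full-length, baculovirus-expressed GST-tagged Wee1A (5 nM) was mixed with 2 nM Eu-anti-GST antibody, 30 nM kinase tracer 178 and compound (1% DMSO). Buffer was 50 mM HEPES pH 7.5, 10 mM MgCl2, 1 mM EGTA, 0.01% Brij-35, incubated 60 min at room temperature. TR-FRET 665/615 nm emission ratios from duplicates were curve-fitted.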
For orientation: TR-FRET usually uses a lanthanide donor and a delayed reading to cut background.

Assay [2] has as its target T2, Wee1A kinase (CDK1 Tyr15 phosphorylation in ACHN renal cell carcinoma cells) (Homo sapiens, UniProt P30291).
T2 construct: pCDK1 Tyr15 immunofluorescence read-out
Description: High-content imaging of pCdk1 Y15, Wee1A kinase target engagement in ACHN cells. It is filed as cell-based. A digest of the protocol: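 ACHN cells exposed to compound for 4 h over 7–5,000 nM or 0.3–200 nM, then fixed and immunostained for pCDK1 Y15 with DAPI nuclear counterstain. The percentage of pCdk1 Y15 nucleus-positive cells relative to DMSO control was imaged per well; EC50 from dose-response curves.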

The target in assay [3] is T3, Myt1 kinase (recombinant PMYT-1) (Homo sapiens, UniProt Q99640).
T3 construct: full length PMYT-1 was expressed by baculovirus in insect cells; purchased Invitrogen A30984; host or cells: insect cells (baculovirus)
T3 sequence (Q99640 1-499): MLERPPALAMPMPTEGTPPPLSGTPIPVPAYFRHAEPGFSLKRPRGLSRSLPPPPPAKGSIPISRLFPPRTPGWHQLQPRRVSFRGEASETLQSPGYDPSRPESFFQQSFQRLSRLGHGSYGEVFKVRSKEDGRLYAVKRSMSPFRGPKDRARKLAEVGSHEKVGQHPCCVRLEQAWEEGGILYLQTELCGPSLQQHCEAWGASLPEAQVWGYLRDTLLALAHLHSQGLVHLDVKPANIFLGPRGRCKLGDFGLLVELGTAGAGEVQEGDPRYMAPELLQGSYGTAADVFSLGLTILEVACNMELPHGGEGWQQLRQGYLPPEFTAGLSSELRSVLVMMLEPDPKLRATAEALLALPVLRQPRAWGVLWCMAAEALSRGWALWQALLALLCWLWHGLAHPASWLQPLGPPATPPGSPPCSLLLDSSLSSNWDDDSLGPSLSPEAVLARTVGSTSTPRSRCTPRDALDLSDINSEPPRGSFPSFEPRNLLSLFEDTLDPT
As to the kind of experiment: Myt1 kinase binding assay (LanthaScreen Eu Kinase Binding Assay). A digest of the protocol:
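The binding affinity of compounds for Myt1 kinase was measured with a LanthaScreen Europium (Eu) Kinase Binding Assay, a time-resolved FRET format in which test compounds compete against a labeled kinase tracer, and the results were expressed as IC50 values describing compound binding to Myt1.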

[4] abbreviates: 30 nM tracer 178, 5 nM Wee1A kinase, 2 nM Eu-labeled antibody, 60 minutes at room temperature, read-out: Wee1A kinase Binding IC50.
[5] abbreviates: 4 h treatment, nuclear positivity for pCdk1 Y15 vs DMSO control, read-out: CDK1 Tyr15 Phosphorylation EC50.
[6] abbreviates: 3 nM tracer 178, 2.5 nM PMYT-1, 1 nM Eu-labeled antibody, read-out: Myt1 kinase Binding IC50.
[7] abbreviates: read-out: CDK1 Tyr15 Phosphorylation EC50, 4 h treatment, nuclear positivity for pCdk1 Y15 vs DMSO control.
The mark [8] stands for this setting: Myt1 kinase Binding IC50, 3 nM tracer 178, 2.5 nM PMYT-1, 1 nM Eu-labeled antibody.

T2 sequence (P30291 whole entry): as the sequence (P30291 whole entry) above

What is called IC50 is the concentration that inhibits the measured activity by half. By EC50 is commonly meant the concentration at which the effect is half-maximal. Consider `C=CCn1c(=O)c2cnc(Nc3ccc(Br)cc3)nc2n1-c1cccc(NC2CCNCC2)n1` [Compound 143, 6-[(4-bromophenyl)amino]-1-{6-[(piperidin-4-yl)amino]pyridin-2-yl}-2-(prop-2-en-1-yl)-1H,2H,3H-pyrazolo[3,4-d]pyrimidin-3-one], for which the IC50 in assay [1] (setting [4]) is less than 10 nM; in assay [3] (setting [6]), 20 to 100 nM. For the same compound, the concentration giving a half-maximal response (EC50) in assay [2] (setting [5]) is 500 to 1000 nM.
The like results for `C=CCn1c(=O)c2cnc(Nc3ccc(F)c(C)c3)nc2n1-c1cccc(NC2CCNCC2)n1` [Compound 128, 2-allyl-6-(4-fluoro-3-toluidino)-1-[6-(4-piperidylamino)-2-pyridyl]-1,2-dihydro-3H-1,2,5,7-tetraazainden-3-one] were, in that order, less than 10 nM, 100 to 500 nM and 100 to 500 nM.
As to `C=CCn1c(=O)c2cnc(Nc3cnn(C)c3)nc2n1-c1cccc(N(C)C2CCNCC2)n1` [Compound 182, 1-{6-[methyl(piperidin-4-yl)amino]pyridin-2-yl}-6-[(1-methyl-1H-pyrazol-4-yl)amino]-2-(prop-2-en-1-yl)-1H,2H,3H-pyrazolo[3,4-d]pyrimidin-3-one], the IC50 in assay [1] is less than 10 nM; in assay [3] (setting [8]), more than 500 nM. Besides, in assay [2] (setting [7]), the EC50 is more than 1000 nM.
With `C=CCn1c(=O)c2cnc(Nc3ccc4c(cnn4C)c3)nc2n1-c1ccnc(OC2CCNCC2)n1` [Compound 350, 2-allyl-6-((1-methyl-1H-indazol-5-yl)amino)-1-(2-(piperidin-4-yloxy)pyrimidin-4-yl)-1,2-dihydro-3H-pyrazolo[3,4-d]pyrimidin-3-one], the IC50 is less than 10 nM in assay [1] (setting [4]) and 100 to 500 nM in assay [3] (setting [6]). The EC50 in assay [2] (setting [5]) is 100 to 500 nM.
Turning to `C=CCn1c(=O)c2cnc(Nc3ccc4c(cnn4C)c3)nc2n1-c1cccc(NC2CCNCC2)n1` [Compound 122, 6-[(1-methyl-1H-indazol-5-yl)amino]-1-{6-[(piperidin-4-yl)amino]pyridin-2-yl}-2-(prop-2-en-1-yl)-1H,2H,3H-pyrazolo[3,4-d]pyrimidin-3-one], the values for the IC50 in assay [1] (setting [4]) and in assay [3] (setting [6]) were less than 10 nM and 100 to 500 nM, respectively. In addition, the EC50 in assay [2] (setting [5]) fell in the range of 500 to 1000 nM.
The like results for `C=CCn1c(=O)c2cnc(Nc3ccc(Cl)cc3)nc2n1-c1cccc(N[C@H]2CCCNC2)n1` [Compound 165, 1-{6-[(S)-3-piperidylamino]-2-pyridyl}-2-allyl-6-(p-chlorophenylamino)-1,2-dihydro-3H-1,2,5,7-tetraazainden-3-one] were, in that order, less than 10 nM, 20 to 100 nM and 500 to 1000 nM.
Turning to `CCn1c(=O)c2cnc(Nc3cccc(-c4cncnc4)c3)nc2n1-c1cccc(OC2CCN(C)CC2)n1` [Compound 367, 2-ethyl-1-[6-(1-methyl-4-piperidyloxy)-2-pyridyl]-6-[m-(5-pyrimidinyl)phenylamino]-1,2-dihydro-3H-1,2,5,7-tetraazainden-3-one], the half-maximal inhibitory concentration (IC50) in assay [1] (setting [4]) is less than 10 nM; in assay [3] (setting [6]) it was 100 to 500 nM. For the same compound, the EC50 in assay [2] (setting [5]) was less than 100 nM.
The corresponding values for `C=CCn1c(=O)c2cnc(Nc3ccc(F)cc3)nc2n1-c1cccc(OC2CCCN(C)CC2)n1` (single isomer, unassigned) [Compound 372] are less than 10 nM, 20 to 100 nM and less than 100 nM.
With `C=CCn1c(=O)c2cnc(Nc3cnn(CC(C)(C)F)c3)nc2n1-c1cccc(N(C)C2CCNCC2)n1` [Compound 183, 1-[6-(N-methyl-N-4-piperidylamino)-2-pyridyl]-2-allyl-6-[1-(2-fluoro-2-methylpropyl)-4-pyrazolylamino]-1,2-dihydro-3H-1,2,5,7-tetraazainden-3-one], the results for the IC50 in assay [1] and in assay [3] (setting [8]) were less than 10 nM and more than 500 nM, respectively. The EC50 in assay [2] (setting [7]) is more than 1000 nM.
Consider `C=CCn1c(=O)c2cnc(Nc3ccc(Cl)cc3)nc2n1-c1cccc(O[C@H]2CN3CCC2CC3)n1` [Compound 176, 1-{6-[(3R)-1-azabicyclo[2.2.2]octan-3-yloxy]pyridin-2-yl}-6-[(4-chlorophenyl)amino]-2-(prop-2-en-1-yl)-1H,2H,3H-pyrazolo[3,4-d]pyrimidin-3-one], for which the IC50 was less than 10 nM in assay [1] and more than 500 nM in assay [3] (setting [8]). In assay [2] (setting [7]), the EC50 is more than 1000 nM.
